In patent publication US7504400B2, “MTP inhibiting aryl piperydines or piperazines substituted with 5-membered heterocycles” (Janssen Pharmaceutica N.V., priority 2004, dated 2009):

Test system: Secretion of ApoB
Experiment: Quantification of the secretion of ApoB in HepG2 cells
Assay type: cell-based
Settings: Homo sapiens, HepG2, 24 h, 24 hours of incubation with test compound, immunoprecipitation of apoB from medium, read-out: pIC50 value (=-log IC50 value), secretion of ApoB (converted)
How it was run: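 At 70% confluency, HepG2 cells in MEM with 10% FCS received compound or DMSO carrier (0.4% final) for 24 h. Secreted apoB in cleared medium immunoprecipitated with sheep anti-apoB then rabbit anti-sheep antibody (24 h each, 8° C); pellet radioactivity counted by liquid scintillation; IC50 expressed as pIC50.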

SMILES	IC50 [nM]
CC(C)n1ncn(-c2ccc(N3CCN(C(C(=O)Nc4ccc(F)cc4)c4ccccc4)CC3)cc2)c1=O (centres unmarked) [Compound 186]	31.6 to 316
CCOC(=O)C(c1ccccc1)N1CCN(c2ccc(-n3ccn(C(C)C)c3=O)cc2)CC1 (centres unmarked) [Compound 189]	316 to 3160
CC(C)n1cnn(-c2ccc(N3CCN(C(C(=O)Nc4ccc5c(c4)CCC5)c4ccccc4)CC3)cc2)c1=O (centres unmarked) [Compound 191]	31.6 to 316
COC(=O)c1cccc(NC(=O)C(c2ccccc2)N2CCN(c3ccc(-n4cnn(C(C)C)c4=O)cc3)CC2)c1 (centres unmarked) [Compound 192]	31.6 to 316
COC(=O)c1ccc(CNC(=O)C(c2ccccc2)N2CCN(c3ccc(-n4cnn(C(C)C)c4=O)cc3)CC2)cc1 (centres unmarked) [Compound 196]	316 to 3160
CC(C)n1ncn(-c2ccc(N3CCN(C(C(=O)Nc4ccc5c(c4)-c4ccccc4C5)c4ccccc4)CC3)cc2)c1=O (centres unmarked) [Compound 197]	31.6 to 316
CC(C)n1ncn(-c2ccc(N3CCN(C(C(=O)Nc4ccc5c(c4)nc(-c4ccccc4)n5C)c4ccccc4)CC3)cc2)c1=O (centres unmarked) [Compound 199]	316 to 3160
CC(C)n1ncn(-c2ccc(N3CCN(C(C(=O)Nc4ccc5c(c4)OCO5)c4ccccc4)CC3)cc2)c1=O (centres unmarked) [Compound 200]	31.6 to 316
CC(C)n1ncn(-c2ccc(N3CCN(C(C(=O)Nc4ccc5c(c4)NCC5)c4ccccc4)CC3)cc2)c1=O (centres unmarked) [Compound 201]	31.6 to 316
CC(=O)N1CCc2ccc(NC(=O)C(c3ccccc3)N3CCN(c4ccc(-n5cnn(C(C)C)c5=O)cc4)CC3)cc21 (centres unmarked) [Compound 202]	31.6 to 316
CC(C)N1CCN(c2ccc(N3CCN(C(C(=O)Nc4ccc5c(c4)CCC5)c4ccccc4)CC3)cc2)C1=O (centres unmarked) [Compound 203]	< 31.6
COC(=O)C(c1ccccc1)N1CCN(c2ccc(-n3cnn(C(C)c4ccccc4)c3=O)cc2)CC1 (centres unmarked) [Compound 204]	31.6 to 316
CC(C)n1ccn(-c2ccc(N3CCN(C(C(=O)Nc4ccc5c(c4)CCC5)c4ccccc4)CC3)cc2)c1=O (centres unmarked) [Compound 205]	< 31.6
CCOC(=O)c1ccccc1NC(=O)C(c1ccccc1)N1CCN(c2ccc(-n3cnn(C(C)C)c3=O)cc2)CC1 (centres unmarked) [Compound 206]	31.6 to 316
CCC(C)n1nc(C)n(-c2ccc(N3CCC(C(C(=O)Nc4ccc5c(c4)CCC5)c4ccccc4)CC3)cc2)c1=O (centres unmarked) [Compound 207]	< 31.6
CC(c1ccccc1)n1ncn(-c2ccc(N3CCN(C(C(=O)Nc4ccc5c(c4)CCC5)c4ccccc4)CC3)cc2)c1=O (centres unmarked) [Compound 208]	316 to 3160

SMILES	IC50 [nM]
O=C(Nc1ccc2c(c1)CCC2)C(c1ccccc1)C1CCN(c2ccc(-n3nc4ccccn4c3=O)cc2)CC1 (centres unmarked) [Compound 211]	< 31.6
O=C(Nc1ccc2c(c1)CCC2)C(c1ccccc1)C1CCN(c2ccc(-n3ncn(Cc4ccccc4)c3=O)cc2)CC1 (centres unmarked) [Compound 212]	< 31.6
CC(C)n1ncn(-c2ccc(N3CCC(CC(=O)Nc4ccc5c(c4)CCC5)CC3)cc2)c1=O [Compound 213]	316 to 3160
Cc1cc(N2CCN(C(C(=O)Nc3ccc4c(c3)CCC4)c3ccccc3)CC2)ccc1-n1ccn(C(C)C)c1=O (centres unmarked) [Compound 214]	< 31.6
CC(C)n1ncn(-c2ccc(N3CCN(C(C(=O)Nc4ccc5c(c4)CCC5)c4ccccc4)CC3)c(Cl)c2)c1=O (centres unmarked) [Compound 215]	< 31.6
CC(C)n1ncn(-c2ccc(N3CCN(C(C(=O)Nc4ccc5c(c4)CCC5)c4ccccc4)CC3)c(F)c2)c1=O (centres unmarked) [Compound 216]	31.6 to 316
CCOC(=O)C(c1ccccc1)N1CCN(c2ccc(-n3cnn(C(C)C)c3=O)c(C)c2)CC1 (centres unmarked) [Compound 217]	31.6 to 316
Cc1cc(N2CCN(C(C(=O)Nc3ccc4c(c3)CCC4)c3ccccc3)CC2)ccc1-n1cnn(C(C)C)c1=O (centres unmarked) [Compound 218]	< 31.6
CCOC(=O)C(c1ccccc1)N1CCN(c2ccc(N3CCN(C(C)C)C3=O)c(C)c2)CC1 (centres unmarked) [Compound 219]	316 to 3160
Cc1cc(N2CCN(C(C(=O)Nc3ccc4c(c3)CCC4)c3ccccc3)CC2)ccc1N1CCN(C(C)C)C1=O (centres unmarked) [Compound 220]	< 31.6
CCOC(=O)C(c1ccccc1)N1CCC(c2ccc(-n3ccn(C(C)c4ccccc4)c3=O)cc2)CC1 (centres unmarked) [Compound 221]	31.6 to 316
CCOC(=O)C(c1ccccc1)C1CCN(c2ccc(-n3ccn(C(C)c4ccccc4)c3=O)cc2)CC1 (centres unmarked) [Compound 222]	31.6 to 316
CCOC(=O)C(c1ccccc1)N1CCC(c2ccc(-n3ccn([C@@H](C)c4ccc(F)cc4)c3=O)cc2)CC1 (some centres unmarked) [Compound 223]	316 to 3160
CCOC(=O)C(c1ccccc1)N1CCC(c2ccc(-n3ccn([C@H](C)c4ccc(F)cc4)c3=O)cc2)CC1 (some centres unmarked) [Compound 224]	31.6 to 316
CCOC(=O)C(c1ccccc1)N1CCC(c2ccc(-n3ccn([C@H](C)c4cccc5ccccc45)c3=O)cc2)CC1 (some centres unmarked) [Compound 225]	31.6 to 316
CCOC(=O)C(c1ccccc1)N1CCC(c2ccc(-n3ccn([C@@H](C)c4cccc5ccccc45)c3=O)cc2)CC1 (some centres unmarked) [Compound 226]	316 to 3160
